This note sets out measurements from PubChem BioAssay (NCI).

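Method: 48-hour compound exposure of cells in 96-well plates, five concentrations, linear interpolation of endpoints. Abbreviation: GI50, concentration required for 50% inhibition of growth. At the TGI there is no net growth.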 Some results are limits rather than exact numbers.

Test systems include SW-620 colon; HCT-116 colon; CAKI-1 renal; DU-145 prostate; SNB-75 CNS; SK-MEL-2 melanoma; TK-10 renal; NCI-H23 lung; HCT-15 colon.
Holding throughout (experiment): NCI tumour cell line growth inhibition, 48 h

Regarding `CN(N)C(=O)NCCCl`, the TGI in the assay on SW-620 colon, in the assay on HCT-116 colon, in the assay with CAKI-1 renal, with DU-145 prostate, in the assay on SNB-75 CNS and in the assay with SK-MEL-2 melanoma was over 100 µM throughout. Also, the TGI in the assay with TK-10 renal, in the assay with NCI-H23 lung and in the assay on HCT-15 colon was over 100 µM throughout.

For `CC1NOC(NS(=O)(=O)c2ccc(N=Nc3c(O)c(C(=O)O)cc4ccccc34)cc2)C1C` (centres undefined), the TGI with SW-620 colon, with HCT-116 colon, in the assay on CAKI-1 renal, in the assay on SNB-75 CNS, with SK-MEL-2 melanoma and in the assay with TK-10 renal was over 100 µM in each case. This compound registered a TGI in the assay on HCT-15 colon of over 100 µM.

Turning to `C=C1c2nc3ccccc3n2C=C(c2ccc(Cl)cc2)N1c1ccccc1`, the TGI in the assay with SW-620 colon was over 100 µM; in the assay with HCT-116 colon, 33.7 µM; in the assay on CAKI-1 renal it was 39.4 µM; in the assay with DU-145 prostate, over 100 µM; in the assay with SNB-75 CNS it was 15.9 µM; with SK-MEL-2 melanoma it was over 100 µM. The TGI in the assay on TK-10 renal came out at 24.8 µM; with NCI-H23 lung, 23.9 µM; with HCT-15 colon it was 24.5 µM.

With `CC[C@@]1(O)C(=O)OCc2c1cc1n(c2=O)Cc2c-1nc1ccccc1c2/C=N\NC(=O)C(N)CS` (some centres undefined), the TGI in the assay with SW-620 colon is over 100 µM; in the assay with HCT-116 colon it was over 100 µM; in the assay with CAKI-1 renal it was over 91.3 µM; with DU-145 prostate, 6.76 µM; in the assay on SNB-75 CNS, 14 µM; in the assay on SK-MEL-2 melanoma, over 100 µM. For the same compound, the TGI is over 100 µM in the assay on TK-10 renal, 21.1 µM in the assay with NCI-H23 lung and over 100 µM in the assay with HCT-15 colon.

With `C=C1C(=O)[C@]23[C@H](O)[C@H]1CC[C@H]2[C@@]12CO[C@@]3(O)C[C@@H]1C(C)(C)CC[C@@H]2O`, the TGI was 13.8 µM with SW-620 colon; 16.2 µM in the assay with HCT-116 colon; over 25 µM in the assay with CAKI-1 renal; over 25 µM in the assay on DU-145 prostate; over 25 µM in the assay on SNB-75 CNS; over 25 µM in the assay on TK-10 renal. The values for the TGI in the assay with NCI-H23 lung and with HCT-15 colon were over 25 µM and 19.6 µM, respectively.

With `O=c1c2c([nH]c3cc4c(cc13)OCO4)-c1ccccc1CCC2`, the TGI in the assay with SW-620 colon, in the assay on HCT-116 colon, in the assay with CAKI-1 renal, in the assay on DU-145 prostate, in the assay on SNB-75 CNS and with TK-10 renal was over 50 µM each time. The TGI with NCI-H23 lung and in the assay on HCT-15 colon was over 50 µM each time.

With `CC(=O)c1ccc(NC(=O)/C(=N\NC(N)=O)C(C#N)CC(C)(C)C=O)cc1` (centres undefined), the TGI with SW-620 colon, in the assay with HCT-116 colon, in the assay on CAKI-1 renal, with SNB-75 CNS, in the assay with SK-MEL-2 melanoma and in the assay with TK-10 renal was over 100 µM throughout. The TGI in the assay on NCI-H23 lung and in the assay on HCT-15 colon was over 100 µM each time.

Regarding `CC(=O)c1ccc2c(c1)oc(=O)n2CCN(C)C`, the TGI in the assay with SW-620 colon, in the assay on HCT-116 colon, in the assay on CAKI-1 renal, in the assay with SNB-75 CNS, in the assay on SK-MEL-2 melanoma and in the assay on TK-10 renal was over 100 µM in each case. The TGI in the assay on NCI-H23 lung and with HCT-15 colon was over 100 µM throughout.

Consider `N=C(N)n1[nH]c2c(c1=O)CCC2`, for which the TGI in the assay on SW-620 colon, in the assay on HCT-116 colon, in the assay on CAKI-1 renal, in the assay on DU-145 prostate, in the assay with SNB-75 CNS and in the assay with SK-MEL-2 melanoma was over 100 µM in each case. For the same compound, the TGI with TK-10 renal, with NCI-H23 lung and in the assay on HCT-15 colon was over 100 µM throughout.

Consider `Cc1ccc(NC(=O)c2cccc([N+](=O)[O-])c2O)c(C)c1`, for which the TGI in the assay on SW-620 colon was over 100 µM; with HCT-116 colon it was over 100 µM; with CAKI-1 renal, 79.8 µM; in the assay with SNB-75 CNS, over 100 µM; in the assay with SK-MEL-2 melanoma, over 100 µM; with NCI-H23 lung, over 100 µM.

With `O=C(NCCO)c1c(O)c2ccccc2[nH]c1=O`, the TGI with SW-620 colon, in the assay on HCT-116 colon, with CAKI-1 renal, in the assay with DU-145 prostate, in the assay on SNB-75 CNS and in the assay on TK-10 renal was over 100 µM throughout. Besides, the TGI with NCI-H23 lung and with HCT-15 colon was over 100 µM each time.

Regarding `NCCCn1c2c(c3ccc([N+](=O)[O-])cc3c1=O)C(=O)c1cc3c(cc1-2)OCO3`, the GI50 with HCT-116 colon is over 100 µM; in the assay with CAKI-1 renal, under 10 nM; with DU-145 prostate it was under 10 nM; in the assay on TK-10 renal, 1830 nM; in the assay with NCI-H23 lung, 22.8 nM; in the assay on HCT-15 colon, 28.2 nM. The TGI with HCT-116 colon was over 100 µM; in the assay on CAKI-1 renal it was 0.491 µM; in the assay with DU-145 prostate, 1.48 µM; in the assay with TK-10 renal, 4.98 µM; in the assay on NCI-H23 lung, 1.14 µM; in the assay on HCT-15 colon, 0.201 µM.

In the case of `O=C(c1ccc(Cl)cc1)N(C(=S)N1CCN(c2ccccn2)CC1)c1ccccc1`, the TGI with SW-620 colon, in the assay on HCT-116 colon, in the assay with CAKI-1 renal, in the assay with SNB-75 CNS, in the assay on SK-MEL-2 melanoma and with TK-10 renal was over 100 µM each time. Further, the TGI with NCI-H23 lung and in the assay on HCT-15 colon was over 100 µM in each case.
